Legend:
ECHCG [1] = assay: Pre-emergence herbicidal action; format: in vivo, Echinochloa crus-galli; conditions: scored after 3 weeks
Source text: (§1) Seeds of monocotyledonous and dicotyledonous weed plants and crop plants are laid out in sandy loam soil in wood-fibre pots and covered with soil. The compounds of the invention, formulated in the form of wettable powders (WP) or as emulsion concentrates (EC), are then applied to the surface of the covering soil in the form of an aqueous suspension or emulsion at a water application rate equivalent to 600 to 800 l/ha, with addition of 0.2% wetting agent. After the treatment, the pots are placed in a greenhouse and kept under good growth conditions for the trial plants. The damage to the test plants is scored visually after a test period of 3 weeks by comparison with untreated controls (herbicidal activity in percent (%): 100% activity=the plants have died, 0% activity=like control plants). […] The tables below illustrate, in an illustrative manner, the post-emergence herbicidal action of the compounds of the invention, the herbicidal activity being stated in percent.

GLXMA = assay: Pre-emergence damage to crop plants; format: in vivo, Glycine max; conditions: 80 g a.i./ha, comparative experiment
Source text: as §1, with “percent. In the experiments that follow, the herbicidal action of the compounds of the invention and that of the corresponding known racemic compounds closest from WO2012126932 and WO2018202535 were compared under the above-specified conditions by the pre-emergence and post-emergence method. The example numbers given in the tables relate to the compounds disclosed in the respective documents.” for “percent.”

VERPE [2] = assay: Post-emergence herbicidal action; format: in vivo, Veronica persica; conditions: assessed after about 3 weeks
Description: (§2) Seeds of monocotyledonous and dicotyledonous weed and crop plants are laid out in sandy loam soil in wood-fibre pots, covered with soil and cultivated in a greenhouse under good growth conditions. 2 to 3 weeks after sowing, the test plants are treated at the one-leaf stage. The compounds of the invention, formulated in the form of wettable powders (WP) or as emulsion concentrates (EC), are then sprayed onto the green parts of the plants in the form of an aqueous suspension or emulsion at a water application rate equating to 600 to 800 l/ha, with addition of 0.2% wetting agent. After the test plants have been left to stand in the greenhouse under optimal growth conditions for about 3 weeks, the action of the preparations is assessed visually in comparison to untreated controls (herbicidal action in percent (%): 100% activity=the plants have died, 0% activity=like control plants). […] The tables below illustrate, in an illustrative manner, the post-emergence herbicidal action of the compounds of the invention, the herbicidal activity being stated in percent. In the experiments that follow, the herbicidal action of the compounds of the invention and that of the corresponding known racemic compounds closest from WO2012126932 and WO2018202535 were compared under the above-specified conditions by the pre-emergence and post-emergence method. The example numbers given in the tables relate to the compounds disclosed in the respective documents.

PHBPU = assay: Post-emergence herbicidal action; format: in vivo, Pharbitis purpurea; conditions: 20 g/ha, assessed after about 3 weeks
Description: as §2, with “percent.” for “percent. In the experiments that follow, the herbicidal action of the compounds of the invention and that of the corresponding known racemic compounds closest from WO2012126932 and WO2018202535 were compared under the above-specified conditions by the pre-emergence and post-emergence method. The example numbers given in the tables relate to the compounds disclosed in the respective documents.”

VERPE [3] = assay: Pre-emergence herbicidal action; format: in vivo, Veronica persica; conditions: scored after 3 weeks
Source text: as §1, with “percent. In the experiments that follow, the herbicidal action of the compounds of the invention and that of the corresponding known racemic compounds closest from WO2012126932 and WO2018202535 were compared under the above-specified conditions by the pre-emergence and post-emergence method. The example numbers given in the tables relate to the compounds disclosed in the respective documents.” for “percent.”

ORYZA [4] = assay: Post-emergence damage to crop plants; format: in vivo, Oryza sativa; conditions: comparative experiment
Description: as §2

VIOTR [5] = assay: Post-emergence herbicidal action; format: in vivo, Viola tricolor; conditions: assessed after about 3 weeks
Description: as §2

AMARE [6] = assay: Post-emergence herbicidal action; format: in vivo, Amaranthus retroflexus; conditions: assessed after about 3 weeks
Description: as §2, with “percent.” for “percent. In the experiments that follow, the herbicidal action of the compounds of the invention and that of the corresponding known racemic compounds closest from WO2012126932 and WO2018202535 were compared under the above-specified conditions by the pre-emergence and post-emergence method. The example numbers given in the tables relate to the compounds disclosed in the respective documents.”

TRZAS [7] = assay: Pre-emergence damage to crop plants; format: in vivo, Triticum aestiva; conditions: comparative experiment
Source text: as §1, with “percent. In the experiments that follow, the herbicidal action of the compounds of the invention and that of the corresponding known racemic compounds closest from WO2012126932 and WO2018202535 were compared under the above-specified conditions by the pre-emergence and post-emergence method. The example numbers given in the tables relate to the compounds disclosed in the respective documents.” for “percent.”

SETVI [8] = assay: Pre-emergence herbicidal action; format: in vivo, Setaria viridis; conditions: scored after 3 weeks
Source text: as §1, with “percent. In the experiments that follow, the herbicidal action of the compounds of the invention and that of the corresponding known racemic compounds closest from WO2012126932 and WO2018202535 were compared under the above-specified conditions by the pre-emergence and post-emergence method. The example numbers given in the tables relate to the compounds disclosed in the respective documents.” for “percent.”

VIOTR [9] = assay: Pre-emergence herbicidal action; format: in vivo, Viola tricolor; conditions: scored after 3 weeks
Source text: as §1

AVEFA = assay: Pre-emergence herbicidal action; format: in vivo, Avena fatua; conditions: 80 g/ha, scored after 3 weeks
Source text: as §1, with “percent. In the experiments that follow, the herbicidal action of the compounds of the invention and that of the corresponding known racemic compounds closest from WO2012126932 and WO2018202535 were compared under the above-specified conditions by the pre-emergence and post-emergence method. The example numbers given in the tables relate to the compounds disclosed in the respective documents.” for “percent.”

ECHCG [10] = assay: Post-emergence herbicidal action; format: in vivo, Echinochloa crus-galli; conditions: for Post-emergence action against ECHCG: assessed after about 3 weeks
Description: as §2

MATIN [11] = assay: Post-emergence herbicidal action; format: in vivo, Matricaria inodora; conditions: assessed after about 3 weeks
Description: as §2, with “percent.” for “percent. In the experiments that follow, the herbicidal action of the compounds of the invention and that of the corresponding known racemic compounds closest from WO2012126932 and WO2018202535 were compared under the above-specified conditions by the pre-emergence and post-emergence method. The example numbers given in the tables relate to the compounds disclosed in the respective documents.”

SETVI [12] = assay: Post-emergence herbicidal action; format: in vivo, Setaria viridis; conditions: assessed after about 3 weeks
Description: as §2

POLCO [13] = assay: Post-emergence herbicidal action; format: in vivo, Polygonum convolvulus; conditions: 20 g/ha, assessed after about 3 weeks
Description: as §2, with “percent.” for “percent. In the experiments that follow, the herbicidal action of the compounds of the invention and that of the corresponding known racemic compounds closest from WO2012126932 and WO2018202535 were compared under the above-specified conditions by the pre-emergence and post-emergence method. The example numbers given in the tables relate to the compounds disclosed in the respective documents.”

MATIN [14] = assay: Pre-emergence herbicidal action; format: in vivo, Matricaria inodora; conditions: scored after 3 weeks
Source text: as §1, with “percent. In the experiments that follow, the herbicidal action of the compounds of the invention and that of the corresponding known racemic compounds closest from WO2012126932 and WO2018202535 were compared under the above-specified conditions by the pre-emergence and post-emergence method. The example numbers given in the tables relate to the compounds disclosed in the respective documents.” for “percent.”

LOLRI = assay: Pre-emergence herbicidal action; format: in vivo, Lolium rigidum; conditions: 80 g/ha, scored after 3 weeks
Source text: as §1, with “percent. In the experiments that follow, the herbicidal action of the compounds of the invention and that of the corresponding known racemic compounds closest from WO2012126932 and WO2018202535 were compared under the above-specified conditions by the pre-emergence and post-emergence method. The example numbers given in the tables relate to the compounds disclosed in the respective documents.” for “percent.”

ALOMY = assay: Pre-emergence herbicidal action; format: in vivo, Alopecurus myosuroides; conditions: 80 g/ha, scored after 3 weeks
Source text: as §1, with “percent. In the experiments that follow, the herbicidal action of the compounds of the invention and that of the corresponding known racemic compounds closest from WO2012126932 and WO2018202535 were compared under the above-specified conditions by the pre-emergence and post-emergence method. The example numbers given in the tables relate to the compounds disclosed in the respective documents.” for “percent.”

POLCO [15] = assay: Pre-emergence herbicidal action; format: in vivo, Polygonum convolvulus; conditions: 80 g/ha, scored after 3 weeks
Source text: as §1, with “percent. In the experiments that follow, the herbicidal action of the compounds of the invention and that of the corresponding known racemic compounds closest from WO2012126932 and WO2018202535 were compared under the above-specified conditions by the pre-emergence and post-emergence method. The example numbers given in the tables relate to the compounds disclosed in the respective documents.” for “percent.”

AMARE [16] = assay: Pre-emergence herbicidal action; format: in vivo, Amaranthus retroflexus; conditions: scored after 3 weeks
Source text: as §1

ZEAMX [17] = assay: Post-emergence damage to crop plants; format: in vivo, Zea mays; conditions: 80 g a.i./ha, comparative experiment
Description: as §2

TRZAS [18] = assay: Post-emergence damage to crop plants; format: in vivo, Triticum aestiva; conditions: 80 g a.i./ha, comparative experiment
Description: as §2

ZEAMX [19] = assay: Pre-emergence damage to crop plants; format: in vivo, Zea mays; conditions: 320 g a.i./ha, comparative experiment
Source text: as §1, with “percent. In the experiments that follow, the herbicidal action of the compounds of the invention and that of the corresponding known racemic compounds closest from WO2012126932 and WO2018202535 were compared under the above-specified conditions by the pre-emergence and post-emergence method. The example numbers given in the tables relate to the compounds disclosed in the respective documents.” for “percent.”

ORYZA [20] = assay: Pre-emergence damage to crop plants; format: in vivo, Oryza sativa; conditions: 80 g a.i./ha, comparative experiment
Source text: as §1, with “percent. In the experiments that follow, the herbicidal action of the compounds of the invention and that of the corresponding known racemic compounds closest from WO2012126932 and WO2018202535 were compared under the above-specified conditions by the pre-emergence and post-emergence method. The example numbers given in the tables relate to the compounds disclosed in the respective documents.” for “percent.”

C[S+]([O-])c1c(C(F)F)ccc(C(=O)Nc2nnco2)c1Cl (stereo in doubt) [Example I-2, 2-chloro-N-(1,3,4-oxadiazol-2-yl)-3-[(S)-methylsulfinyl]-4-(difluoromethyl)benzamide]
Pre-emergence action against ECHCG (ECHCG [1]; 20 g/ha): 100%
Pre-emergence action against ECHCG (ECHCG [1]; 80 g/ha): 100%
Damage to GLXMA (GLXMA): 30%
Post-emergence action against VERPE (VERPE [2]; 5 g/ha): 90%
Post-emergence action against VERPE (VERPE [2]; 20 g/ha): 100%
Post-emergence action against PHBPU (PHBPU): 90%
Pre-emergence action against VERPE (VERPE [3]; 20 g/ha): 80%
Pre-emergence action against VERPE (VERPE [3]; 80 g/ha): 80%
Damage to ORYZA (ORYZA [4]; 5 g a.i./ha): 0%
Post-emergence action against VIOTR (VIOTR [5]; 5 g/ha): 90%
Post-emergence action against VIOTR (VIOTR [5]; 20 g/ha): 100%
Post-emergence action against AMARE (AMARE [6]; 5 g/ha): 100%
Post-emergence action against AMARE (AMARE [6]; 20 g/ha): 100%
Damage to TRZAS (TRZAS [7]; 20 g a.i./ha): 20%
Damage to TRZAS (TRZAS [7]; 80 g a.i./ha): 70%
Pre-emergence action against SETVI (SETVI [8]; 20 g/ha): 100%
Pre-emergence action against SETVI (SETVI [8]; 80 g/ha): 100%
Pre-emergence action against VIOTR (VIOTR [9]; 20 g/ha): 100%
Pre-emergence action against VIOTR (VIOTR [9]; 80 g/ha): 100%
Pre-emergence action against AVEFA (AVEFA): 100%
Herbicidal action against ECHCG (ECHCG [10]; 5 g a.i./ha, comparative experiment): 90%
Post-emergence action against ECHCG (ECHCG [10]; 5 g/ha): 90%
Post-emergence action against ECHCG (ECHCG [10]; 20 g/ha): 90%
Post-emergence action against MATIN (MATIN [11]; 5 g/ha): 90%
Post-emergence action against MATIN (MATIN [11]; 20 g/ha): 90%
Post-emergence action against SETVI (SETVI [12]; 5 g/ha): 90%
Post-emergence action against SETVI (SETVI [12]; 20 g/ha): 90%
Post-emergence action against POLCO (POLCO [13]): 80%
Pre-emergence action against MATIN (MATIN [14]; 20 g/ha): 100%
Pre-emergence action against MATIN (MATIN [14]; 80 g/ha): 100%
Pre-emergence action against LOLRI (LOLRI): 90%
Pre-emergence action against ALOMY (ALOMY): 90%
Pre-emergence action against POLCO (POLCO [15]): 90%
Pre-emergence action against AMARE (AMARE [16]; 20 g/ha): 100%
Pre-emergence action against AMARE (AMARE [16]; 80 g/ha): 100%

C[S+]([O-])c1c(C(F)(F)F)ccc(C(=O)Nc2nnco2)c1Cl (racemic) [1-360, from WO2012126932, 2-chloro-N-(1,3,4-oxadiazol-2-yl)-3-[(rac)-methylsulfinyl]-4-(trifluoromethyl)benzamide, reference compound]
Damage to ZEAMX (ZEAMX [17]): 20%
Damage to TRZAS (TRZAS [18]): 100%
Damage to ORYZA (ORYZA [4]; 80 g a.i./ha): 100%
Damage to TRZAS (TRZAS [7]; 80 g a.i./ha): 80%
Damage to ZEAMX (ZEAMX [19]): 20%
Damage to ORYZA (ORYZA [20]): 100%
